# Key:
# PD-1/PD-L1 interaction = target: T1, PD-1/PD-L1 interaction (Homo sapiens, UniProt Q9NZQ7); assay: PD-1/PD-L1 NFAT reporter co-culture assay; type: cell-based; details: Jurkat PD-1 NFAT-luciferase cells co-cultured with aAPC-PD-L1 CHO cells, 6 hrs at 37° C.; read-out: EC50 NFAT Luciferase
# T1 construct: expressed in transfected cells; host or cells: CHO cells (aAPC-PD-L1) co-cultured with Jurkat cells overexpressing PD-1 and an NFAT-luciferase reporter
# Outline: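 Jurkat cells overexpressing PD-1 with NFAT-luciferase mixed with compounds and plated onto CHO aAPCs expressing anti-CD3 and PD-L1, RPMI with 2% FBS. Co-culture 6 h at 37 °C; luminescence read with ONE-Glo. EC50 from four-parameter fit.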
# PD-1/PD-L1 = PD-1/PD-L1 (Homo sapiens, UniProt Q9NZQ7); assay: PD-1/PD-L1 biochemical protein-protein interaction assay (ALPHA); type: binding; details: 0.3 nM His tagged PD-L1, 2.5 nM biotinylated Fc-PD-1, 60 minutes at 25° C., read-out: IC50 PD-L1-PD-1 Alpha IC50-mono PD-L1-fcP-D1
# Sequence of PD-1/PD-L1 (Q9NZQ7 19-238 limits assumed): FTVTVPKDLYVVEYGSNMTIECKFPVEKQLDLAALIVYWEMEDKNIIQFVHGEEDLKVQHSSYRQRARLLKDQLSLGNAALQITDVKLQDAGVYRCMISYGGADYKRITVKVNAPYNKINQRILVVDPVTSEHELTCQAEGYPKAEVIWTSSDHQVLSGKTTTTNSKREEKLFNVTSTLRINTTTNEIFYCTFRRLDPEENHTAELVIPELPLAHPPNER
# Outline: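 His-PD-L1 ECD 0.3 nM + biotin-Fc-PD-1 2.5 nM (final), 25 mM Hepes pH 7.4, 150 mM NaCl, 3.4 mM EDTA; 60 min, 25° C; anti-His acceptor/streptavidin donor ALPHA beads; decreased signal = blocked binding; 4-parameter IC50.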
# PD-L1 = target: T2, PD-L1 (Homo sapiens, UniProt Q9NZQ7); assay: PD-L1/PD-L1 dimerization biochemical protein-protein interaction assay (ALPHA); type: binding; details: compound-induced PD-L1 dimerization, head prints '1 nM' (0.5 nM His-tagged PD-L1 and 0.5 nM FLAG-tagged PD-L1), read-out: AC50 PDL1 Dimer Alpha 1 nM
# T2 construct: determine if they can specifically dimerize the extracellular domains of PD-L1
# T2 sequence (Q9NZQ7 19-238 limits assumed): as above
# T2 sequence (Q9NZQ7 19-238 limits assumed): as above
# Outline: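 After 2 h at 25 °C with compound, His- and FLAG-tagged PD-L1 ECDs (each 0.5 nM final; 25 mM Hepes pH 7.4, 150 mM NaCl) were detected by sequential anti-His acceptor and anti-FLAG donor bead incubations. Dose-response curves fitted to four-parameter equation for AC50.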
# T1 sequence (Q9NZQ7 19-290): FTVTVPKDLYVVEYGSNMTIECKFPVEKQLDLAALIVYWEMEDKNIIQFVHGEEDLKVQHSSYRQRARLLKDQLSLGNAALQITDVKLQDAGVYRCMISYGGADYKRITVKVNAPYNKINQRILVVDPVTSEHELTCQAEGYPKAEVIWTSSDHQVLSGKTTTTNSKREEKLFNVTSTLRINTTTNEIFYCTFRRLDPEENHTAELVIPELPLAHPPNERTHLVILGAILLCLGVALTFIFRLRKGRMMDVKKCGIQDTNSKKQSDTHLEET
EC50 (PD-1/PD-L1 interaction),IC50 (PD-1/PD-L1),AC50 (PD-L1),Compound
129 nM,0.431 nM,453 nM,Cc1c(COc2cc(OCc3cncc(C#N)c3)c(CNC[C@@H](O)CC(=O)O)cc2Cl)cccc1-c1cccc(-c2ccc(CN[C@H]3CCCNC3=O)cc2)c1C [Example 572]
120 nM,0.154 nM,215 nM,Cc1c(COc2cc(OCc3cncc(C#N)c3)c(CN[C@@](C)(CO)C(=O)O)cc2Cl)cccc1-c1cccc(-c2ccc(CN[C@H]3CCCNC3=O)cc2)c1C [Example 573]
72 nM,0.071 nM,56 nM,Cc1c(COc2cc(OCc3cncc(C#N)c3)c(CNC[C@@H](O)CC(=O)O)cc2Cl)cccc1-c1cccc(-c2ccc(CNC[C@@H]3CCC(=O)N3)cc2)c1C [Example 574]
34 nM,0.073 nM,40.6 nM,Cc1c(COc2cc(OCc3cncc(C#N)c3)c(CN[C@@](C)(CO)C(=O)O)cc2Cl)cccc1-c1cccc(-c2ccc(CNC[C@@H]3CCC(=O)N3)cc2)c1C [Example 575]
191 nM,0.064 nM,34.8 nM,Cc1c(COc2cc(OCc3cncc(C#N)c3)c(CN[C@@](C)(CO)C(=O)O)cc2Cl)cccc1-c1cccc(-c2ccc(CN3CC4(CCC(=O)N4)C3)cc2)c1C [Example 579]
200 nM,0.215 nM,231 nM,Cc1c(COc2cc(OCc3cncc(C#N)c3)c(CN[C@@](C)(CO)C(=O)O)cc2Cl)cccc1-c1cccc(-c2ccc(CNCCn3ccnn3)cc2)c1C [Example 580]
147 nM,1.3 nM,347 nM,Cc1c(COc2cc(OCc3cncc(C#N)c3)c(CN3CC[C@@H](O)C3)cc2Cl)cccc1-c1cccc(-c2ccc(CN3CC(CC(=O)O)C3)cc2)c1C [Example 582]
172 nM,0.095 nM,107 nM,Cc1c(COc2cc(OCc3cncc(C#N)c3)c(CNC[C@@H](O)CC(=O)O)cc2Cl)cccc1-c1cccc(-c2nc3ccc(CNC[C@@H](O)CC(=O)O)cc3o2)c1C [Example 592]
113 nM,0.064 nM,124 nM,Cc1c(COc2cc(OCc3cncc(C#N)c3)c(CNC[C@@H](O)CC(=O)O)cc2Cl)cccc1-c1cccc(-c2nc3cc(CNC[C@@H](O)CC(=O)O)ccc3o2)c1C [Example 593]
65 nM,0.064 nM,77 nM,Cc1c(COc2cc(OCc3cncc(C#N)c3)c(CNC[C@@H](O)CC(=O)O)cc2Cl)cccc1-c1cccc(-c2nc3ccc(CNC[C@@H](O)CC(=O)O)cn3n2)c1C [Example 595]

# More lines, now with the values behind:
Compound,EC50 (PD-1/PD-L1 interaction),IC50 (PD-1/PD-L1),AC50 (PD-L1)
N#Cc1cc(C#N)cc(COc2nc(OCc3cccc(-c4cccc(-c5ccc(CNC[C@@H]6CCC(=O)N6)cc5)c4Cl)c3Cl)c(Cl)cc2CNC[C@@H](O)CC(=O)O)c1 [Example 576],32 nM,0.169 nM,24.3 nM
C[C@@](CO)(NCc1cc(Cl)c(OCc2cccc(-c3cccc(-c4ccc(CNC[C@@H]5CCC(=O)N5)cc4)c3Cl)c2Cl)nc1OCc1cc(C#N)cc(C#N)c1)C(=O)O [Example 577],16 nM,0.064 nM,9.73 nM
CC(C)(NCc1cc(Cl)c(OCc2cccc(-c3cccc(-c4ccc(OCCNCCO)cc4)c3Cl)c2Cl)nc1OCc1cc(C#N)cc(C#N)c1)C(=O)O [Example 578],135 nM,0.111 nM,37.2 nM
Cc1c(COc2nc(OCc3cncc(C#N)c3)c(CN[C@@](C)(CO)C(=O)O)cc2Cl)cccc1-c1cccc(-c2ccc(OCCNCCO)cc2)c1C [Example 581],158 nM,0.182 nM,60.3 nM
Cc1c(COc2cc(OCc3cncc(C#N)c3)c(CN[C@@H]3CCC[C@@H]3O)cc2Cl)cccc1-c1cccc(-c2ccc3c(c2)CCC3N2CC3(CC(C(=O)O)C3)C2)c1C (stereo partly drawn) [Example 583],180 nM,0.296 nM,38.3 nM
Cc1c(COc2cc(OCc3cncc(C#N)c3)c(CN[C@@H]3CCC[C@@H]3O)cc2Cl)cccc1-c1cccc(-c2ccc3c(c2)CCC3N2CC[C@H](CC(=O)O)C2)c1C (stereo partly drawn) [Example 584],149 nM,0.124 nM,38.6 nM
CC(=O)N1CC2(CN(Cc3cn(C)c4nc(-c5cccc(-c6cccc(-c7cnc8c(CN9CC%10(C9)CN(C(C)=O)C%10)cn(C)c8n7)c6Cl)c5Cl)cnc34)C2)C1 [Example 587],45 nM,0.145 nM,324 nM
Cn1cc(CN2CC3(CNC(=O)C3)C2)c2ncc(-c3cccc(-c4cccc(-c5cnc6c(CN7CC8(CNC(=O)C8)C7)cn(C)c6n5)c4Cl)c3Cl)nc21 [Example 588],50 nM,0.081 nM,206 nM
Cn1cc(CN2CC3(CCC(=O)N3)C2)c2ncc(-c3cccc(-c4cccc(-c5cnc6c(CN7CC8(CCC(=O)N8)C7)cn(C)c6n5)c4Cl)c3Cl)nc21 [Example 589],89 nM,0.163 nM,164 nM
COc1nc(-c2cccc(-c3cccc(COc4nc(OC)c(CNC[C@@H](O)CC(=O)O)cc4Cl)c3Cl)c2Cl)ccc1CNC[C@@H]1CCC(=O)N1 [Example 590],140 nM,0.186 nM,134 nM
COc1nc(O[C@H]2CCc3c(-c4cccc(-c5cc(C)c(CNC[C@@H]6CCC(=O)N6)c(OC)n5)c4Cl)cccc32)c(Cl)cc1CNC[C@@H]1CCC(=O)N1 [Example 591],20 nM,0.064 nM,22.7 nM
"COc1nc(-c2cccc(-c3cccc(-c4cnn(CCN)c4)c3Cl)c2Cl)ccc1CNC[C@@H]1CCC(=O)N1 [Example 596, (S)-5-((((6-(3′-(1-(2-aminoethyl)-1H-pyrazol-4-yl)-2,2′-dichloro-[1,1′-biphenyl]-3-yl)-2-methoxypyridin-3-yl)methyl)amino)methyl)pyrrolidin-2-one]",169 nM,0.671 nM,415 nM
"COc1nc(-c2csc(-c3cccc(-c4ccc(CNC[C@@H]5CCC(=O)N5)c(OC)n4)c3Cl)c2)ccc1CNC[C@@H]1CCC(=O)N1 [Example 597, (S)-5-((((6-(2-chloro-3-(4-(6-methoxy-5-(((((S)-5-oxopyrrolidin-2-yl)methyl)amino)methyl)pyridin-2-yl)thiophen-2-yl)phenyl)-2-methoxypyridin-3-yl)methyl)amino)methyl)pyrrolidin-2-one]",231 nM,1.26 nM,310 nM
"COc1nc(-c2cccc(-c3cccc(-c4ccc5c(ccn5CCN(C)C)c4)c3Cl)c2Cl)ccc1CNC[C@@H]1CCC(=O)N1 [Example 598, (S)-5-((((6-(2,2′-dichloro-3′-(1-(2-(dimethylamino)ethyl)-1H-indol-5-yl)-[1,1′-biphenyl]-3-yl)-2-methoxypyridin-3-yl)methyl)amino)methyl)pyrrolidin-2-one]",1840 nM,3 nM,480 nM
"COc1nc(-c2cccc(-c3cccc(N4Cc5cc(CN6CC7(C6)CN(C(C)=O)C7)ccc5C4=O)c3Cl)c2Cl)ccc1CN1CC2(C1)CN(C(C)=O)C2 [Example 599, 5-((6-acetyl-2,6-diazaspiro[3.3]heptan-2-yl)methyl)-2-(3′-(5-((6-acetyl-2,6-diazaspiro[3.3]heptan-2-yl)methyl)-6-methoxypyridin-2-yl)-2,2′-dichloro-[1,1′-biphenyl]-3-yl)isoindolin-1-one]",≥ 50000 nM,0.214 nM,7930 nM
COc1nc(-c2cccc(-c3csc(-c4cnc(CNC[C@@H]5CCC(=O)N5)c(OC)n4)c3)c2Cl)ccc1CNC[C@@H]1CCC(=O)N1 [Example 600],240 nM,0.39 nM,261 nM
COc1nc(-c2ccc(-c3cccc(-c4ccc(CNC[C@@H]5CCC(=O)N5)c(OC)n4)c3Cl)s2)ccc1CNC[C@@H]1CCC(=O)N1 [Example 601],748 nM,5.27 nM,1130 nM
COc1nc(-c2cccc(-c3cccc(-c4cnc5c(CNC[C@H]6CCC(=O)N6)cn(C)c5c4)c3Cl)c2Cl)ccc1CNC[C@H]1CCC(=O)N1 [Example 602],242 nM,0.236 nM,124 nM
COc1nc(-c2cccc(-c3cccc(-c4ccc5c(CNC[C@@H]6CCC(=O)N6)cc(=O)n(C)c5c4)c3Cl)c2Cl)ccc1CNC[C@@H]1CCC(=O)N1 [Example 603],158 nM,0.206 nM,235 nM
COc1nc(-c2cccc(-c3cccc(-c4ccc5c(CNC[C@@H]6CCC(=O)N6)cccc5c4)c3Cl)c2Cl)ccc1CNC[C@@H]1CCC(=O)N1 [Example 604],552 nM,4.87 nM,935 nM
COc1nc(-c2cccc(-c3cccc(-c4ccc5c(CNC[C@H]6CCC(=O)N6)cn(C)c5c4)c3Cl)c2Cl)ccc1CNC[C@H]1CCC(=O)N1 [Example 605],130 nM,1.05 nM,352 nM
COc1nc(-c2cccc(-c3cccc(-c4ccc5[nH]c(CN(C)C)cc5c4)c3Cl)c2Cl)ccc1CNC[C@@H]1CCC(=O)N1 [Example 606],≥ 50000 nM,6.23 nM,558 nM
